System: patients with moderate to severe tardive dyskinesia
Assay: ARM-TD randomized, double-blind, placebo-controlled study
Type: in vivo, human
From the text: An additional clinical study, Aim to Reduce Movements in […] Dyskinesia (ARM-TD) was designed and conducted to evaluate the efficacy of SD-809 (deutetrabenazine) in the treatment of moderate to severe tardive dyskinesia. […] Subjects were screened for inclusion in the study as follows. Inclusion criteria included: between 18 and 75 years of age, inclusive; history of using a dopamine receptor antagonist for at least 3 months (or 1 month in subjects 60 years of age and older); clinical diagnosis of TD, and has had symptoms for at least 3 months prior to Screening; […] Dosing. […] Drug was then administered at that dose for another six weeks for a total treatment of 12 weeks, followed by a 1-week washout period. […] Dose suspensions of up to one week were permitted if the subject experienced a clinically significant adverse event. Study Objectives and Endpoints. The objectives of the study was to evaluate the efficacy of SD-809 in reducing the severity of abnormal involuntary movements associated with tardive dyskinesia and the safety and tolerability of titration and maintenance therapy with deutetrabenazine in subjects with drug-induced tardive dyskinesia. […] Baseline AIMS score is defined for each subject as the Day 0 assessment. The AIMS is composed of 12 clinician-administered and scored items. Items 1-10 are rated on a 5-point, anchored scale and consist of the following: • Items 1-4 assess orofacial movements; • Items 5-7 deal with extremity and truncal dyskinesia; • Items 8-10 deal with global severity as judged by the examiner, and the patient's awareness of the movements and the distress associated with them; and • Items 11-12 are yes/no questions concerning problems associated with teeth and/or dentures, as such problems can be mistaken for dyskinesia. […] As with previous studies, […] treatment success may be defined as Much or Very Much Improved on a 7-point Likert Scale, ranging from very much worse to very much improved at Week 12. The CDQ-24 is a disease-specific quality of life questionnaire developed for use in patients with craniocervical dystonia, including both cervical dystonia (CD) and blepharospasm (BPS). The CDQ-24 was selected for use in the present study because it includes domains which are relevant not only to CD and BPS, but to TD, such as stigma, emotional well-being, pain, activities of daily living, and social/family life. For the present study, the CDQ-24 has been modified such that the questions focus more directly on the impact of TD (as opposed to CD/BPS) on quality of life. […] Measurements and Statistics. Digital video recordings of AIMS assessments made at all clinic visits (at Screening, Baseline, Weeks 2, 4, 6, 9, and 12) were rated by pairs of central raters who were experts in movement disorders and were blinded to treatment arm, sequence of video, and the investigator AIMS score. Analysis was carried out using a linear mixed model for repeated measurements (MMRM) with the change in the AIMS score as the dependent variable. The model included fixed effects for treatment group, time point (five levels: Weeks 2, 4, 6, 9, and 12), the treatment group by time point interaction, and the randomization stratification variable. The unstructured covariance model was used and the primary analysis compared the deutetrabenazine and placebo groups at Week 12 using a two-sided test at the 5% level of significance.

[1] = n = 58, count (percent), listed as DTBZ

## [2H]C([2H])([2H])Oc1cc2c(cc1OC([2H])([2H])[2H])C1CC(=O)C(CC(C)C)CN1CC2 (stereo not drawn) [deutetrabenazine, (RR, SS)-1,3,4,6,7,11b-hexahydro-9,10-di(methoxy-d3)-3-(2-methylpropyl)-2H-benzo[a]quinolizin-2-one]
DTBZ vs Placebo
  CGIC Treatment Success, Treatment Difference: 7.90%
  Change from baseline mCDQ-24, Treatment Difference: −2.7
  PGIC Treatment Success, Treatment Difference: 13.00%
DTBZ vs Placebo, p-value 0.0188
  AIMS Change (LS Mean), Treatment Difference: −1.4
N = 56
  Change from baseline mCDQ-24: −11.1
Week 12, N = 56
  CGIC Treatment Success (%): 48.20%
  PGIC Treatment Success N (%): 42.90%
Baseline to Week 12, N = 56
  AIMS Change (LS Mean): −3
Baseline to end of therapy
  improvement on the AIMS score: 3.0 points
In vivo
  Depression/depressed mood reported: one patient
  suicidal ideation reported: none
N = 58, count (percent)
  Any TEAEs (Treatment-Emergent Adverse Events): 41 (70.7%)
  TEAE Anxiety: 3 (5.2%)
  TEAE Chest pain: 1 (1.7%)
  TEAE Constipation: 2 (3.4%)
  TEAE Diarrhea: 3 (5.2%)
  TEAE Dizziness: 2 (3.4%)
  TEAE Dry mouth: 2 (3.4%)
  TEAE Fatigue: 4 (6.9%)
  TEAE Headache: 4 (6.9%)
  TEAE Nasopharyngitis: 2 (3.4%)
  TEAE Nausea: 2 (3.4%)
  TEAE Pneumonia: 1 (1.7%)
  TEAE Upper respiratory tract infection: 2 (3.4%)
  TEAE Vomiting: 1 (1.7%)
[1]
  Serious TEAEs: 4 (6.9%)
  TEAE Akathisia: 3 (5.2%)
  TEAE Insomnia: 4 (6.9%)
  TEAE Somnolence/sedation: 9 (15.5%)
  TEAEs Resulting in Study Withdrawal: 1 (1.7%)
